Reference: PubChem BioAssay (NCI)
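Cultured in 96-well plates, cells were exposed to test compound for 48 hours across five concentrations. At the GI50, growth is halved. TGI denotes the concentration required for complete inhibition of growth.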

Key:
Assay in all cases: NCI-60 cell line screen, 48 h
NCI-H460 lung = tested on: NCI-H460 lung
A549 NSCLC = tested on: A549 NSCLC
M14 melanoma = tested on: M14 melanoma
HOP-62 NSCLC = tested on: HOP-62 NSCLC
HCT-15 colon = tested on: HCT-15 colon
OVCAR-3 ovarian = tested on: OVCAR-3 ovarian
IGROV1 ovarian = tested on: IGROV1 ovarian
SK-MEL-28 melanoma = tested on: SK-MEL-28 melanoma
LOX IMVI melanoma = tested on: LOX IMVI melanoma
UO-31 renal = tested on: UO-31 renal

Structure (SMILES)	GI50 (NCI-H460 lung) [µM]	TGI (NCI-H460 lung) [µM]	GI50 (A549 NSCLC) [µM]	TGI (A549 NSCLC) [µM]	GI50 (M14 melanoma) [µM]	TGI (M14 melanoma) [µM]	GI50 (HOP-62 NSCLC) [µM]	TGI (HOP-62 NSCLC) [µM]	GI50 (HCT-15 colon) [µM]	TGI (HCT-15 colon) [µM]	GI50 (OVCAR-3 ovarian) [µM]	TGI (OVCAR-3 ovarian) [µM]	GI50 (IGROV1 ovarian) [µM]	TGI (IGROV1 ovarian) [µM]	GI50 (SK-MEL-28 melanoma) [µM]	TGI (SK-MEL-28 melanoma) [µM]	GI50 (LOX IMVI melanoma) [µM]	TGI (LOX IMVI melanoma) [µM]	GI50 (UO-31 renal) [µM]	TGI (UO-31 renal) [µM]
CCCCCCCCSC1=CC(=O)c2nc3ccccc3c3ccnc1c23	26.3	> 100	83.2	> 100	> 100	> 100	> 100	> 100	38.4	> 100	19	> 100	> 100	> 100	42.7	> 100	> 100	> 100	49.5	> 100
Cn1ccnc1C(=O)/C=C/c1ccc(CC(=O)Nc2ccc(Br)cc2)cc1	3	8.51	4.68	13.2	2.63	6.07	3.34	7.9	2.5	> 16.7	4.02	14.4	2.97	10.6	3.32	7.63	2.07	4.28	2.19	4.39
O=C(NCCNc1nccc(-c2c(-c3cccc(O)c3)nc3sccn23)n1)c1ccccc1O	4.16	19.6	5.02	> 51.1	0.342	13.6	9.04	42.1	4.53	> 46.8	5.57	47.8	4.52	> 73	0.43	33.3	3.03	23.7	5	19.8
O=C(Nc1ccc(I)cc1)c1cc([N+](=O)[O-])ccc1O	6.42	56.8	11.6	> 100	12.8	62.8	16.4	> 100	5.77	38.9	3.74	32.1	13.8	> 100	9.53	72.3	4.44	61	3.77	47.6
CSCCCN(CCCSC)CCCSC	–	> 100	–	> 100	–	> 100	–	> 100	–	> 100	–	> 100	–	> 100	–	> 100	–	> 100	–	> 100
CCOC(=O)c1ncn2c1[nH]c(=S)c1ccccc12	–	> 100	–	> 100	–	> 100	–	> 100	–	> 100	–	> 100	–	> 100	–	> 100	–	> 100	–	> 100
Cc1ccc(-c2nnc(-c3ccc4ccccc4c3)o2)cc1	–	> 100	–	> 100	–	> 93.2	–	> 77.4	–	> 100	–	> 100	–	> 100	–	> 100	–	> 100	–	> 100
Nc1cc2nc3ccccc3sc-2cc1=O	2.9	10.2	2.06	4.82	1.66	3.2	2.51	5.71	1.44	11.1	1.76	7.09	3.02	13.1	2.12	4.04	1.48	3.74	1.33	3.36
O=C(CN1CCN(c2cc3c(cc2F)c(=O)c(C(=O)N/N=C/c2ccccc2O)cn3C2CC2)CC1)N/N=C\c1ccccc1O	0.367	> 48.7	0.569	> 100	0.384	5.02	0.408	> 100	0.33	> 100	0.269	> 100	0.787	> 100	0.657	> 100	0.232	> 75.7	0.359	> 100
